Measurements reported in patent US20250381179A1, “CHROMAN-BASED COMPOUNDS FOR TREATING CANCER” (priority 2024, published 2025).
Where two headings read alike, the source gives them in different places.

Tests used:
MCF7 cells = experiment: MCF7 cell growth inhibition (luminescence-based proliferation assay, CellTiter-Glo)
Description: MCF7 cells were obtained from American Type Culture Collection (ATCC). For cell growth assay, MCF7 cells were seeded in 96-well plates at 2000 cells/well in 90 μL of DMEM medium containing 10% fetal bovine serum, and then incubated at 37° C. with 5% CO2 in air overnight. The following day, compound (1-g) and compound (1-h) were administered to the cells by using 1000× compound stock solution prepared in DMSO at concentrations of 3, 1, 0.33, 0.11, 0.037, 0.012, 0.0041, 0.0013, and 0.00046 mM. 1000x compound stock solution was first diluted in culturing medium to 10×, then 10 μL compound medium was added to each well in the cell plates. After administration of compound (1-g) and compound (1-h), the cells were then incubated at 37° C. for 6 days. Upon completion, the plates were equilibrated at room temperature for approximately 10 minutes. 100 μL of CellTiter-Glo® Reagent (Promega) was added to each well. The plates were then incubated at room temperature for 10 minutes and luminescence was recorded by EnSpire plate reader (PerkinElmer).

[1] = Phase 1 study: plasma pharmacokinetics in patients; type: in vivo, human; details: human, plasma, po; for AUC(0-t): read-out: AUC0-24 h of (1-h); for Tmax: read-out: Tmax* of (1-h); for Cmax: read-out: Cmax of (1-h)
Description: All patients received compound (1-g) orally. The time of day for administration of compound (1-g) was consistent. Compound (1-g) was taken whole with liquid(s) and with food in the morning. The patient avoided taking other medications at the same time as compound (1-g). When possible, the patient took other medications in the evening or separated by a minimum of 4 hours following compound (1-g) dosing. On scheduled PK collection days (Cycle 1 Day 1, Cycle 1 Day 15, and Day 1 of Cycles 2, 3, 4, and 6) patients were instructed to wait until they arrive at the study center to take their study drug when told. If a patient missed a dose of compound (1-g), the patient was required to take the dose as soon as possible, but not less than 12 hours before the next dose is due. If vomiting occurred after taking the study treatment, the patient was instructed not to retake the dose and record the dose recorded as taken in the dosing diary, noting that the patient vomited and marking the time of vomiting. Patients were instructed to take the next scheduled dose of compound (1-g).
The plasma PK parameters (including AUC(0-∞), AUC(0-τ), Cmax, tmax, and T1/2) of compound (1-g) following oral administration was assessed by analysis of blood samples. During treatment, PK blood samples were taken at approximately the following time points: • Cycle 1 Day 1, and Day 15: pre-dose; at 1, 2, and 4-hour post-dose (±5 min); 6 and 8-hour post-dose (±10 min); and 24 hours post-dose (+1 hour); • Cycle 2, 3, 4, and 6 Day 1: pre-dose only.
Plasma concentrations of compound (1-g) were used to calculate the PK parameters. These parameters were listed by individual patient and summarized by descriptive statistics (means, medians, ranges, standard deviations, and coefficients of variation as appropriate) by cohort.
Compound (1-g) was administered orally to patients once a day at 100, 200, 300 mg, 400 mg, and 600 mg doses.

[2] = 100 mg, patient plasma after oral (1-g) 100 mg QD, C1D15, n = 2, mean
[3] = 200 mg, patient plasma after oral (1-g) 200 mg QD, C1D1, n = 12, mean
[4] = 200 mg, patient plasma after oral (1-g) 200 mg QD, C1D15, n = 12, mean
[5] = 300 mg, patient plasma after oral (1-g) 300 mg QD, C1D1, n = 10, mean
[6] = 300 mg, patient plasma after oral (1-g) 300 mg QD, C1D15, n = 10, mean
[7] = 400 mg, patient plasma after oral (1-g) 400 mg QD, C1D1, n = 6, mean
[8] = 400 mg, patient plasma after oral (1-g) 400 mg QD, C1D15, n = 5, mean
[9] = 600 mg, patient plasma after oral (1-g) 600 mg QD, C1D1, n = 4, mean
[10] = 600 mg, patient plasma after oral (1-g) 600 mg QD, C1D15, n = 4, mean

O=C1CC[C@@H](N2Cc3cc(N4CCN(CC5CCN(c6ccc([C@@H]7c8ccc(O)cc8OC[C@@H]7c7ccccc7)cc6F)CC5)CC4)ccc3C2=O)C(=O)N1 [compound (1-h), (R)-3-(5-(4-((1-(2-fluoro-4-((3S,4R)-7-hydroxy-3-phenylchroman-4-yl)phenyl)piperidin-4-yl)methyl)piperazin-1-yl)-1-oxoisoindolin-2-yl)piperidine-2,6-dione]
GI50 (MCF7 cells; Homo sapiens, 144 h, MCF7 cells, 6 days, CellTiter-Glo): 9 nM
reduced the tumor growth by (FIG. 3A/3B) (MCF7 cells; MCF7 cell proliferation assay): about 62%
AUC(0-t) ([1]; 100 mg, patient plasma after oral (1-g) 100 mg QD, C1D1, n = 1, mean): 332 ng·h/mL
Tmax ([1]; 100 mg, patient plasma after oral (1-g) 100 mg QD, C1D15, n = 2, *median value): 12 h
AUC(0-t) [1, 2]: 7080 ng·h/mL
Cmax [1, 2]: 326 ng/mL
AUC(0-t) [1, 3]: 1030 ng·h/mL
Cmax [1, 3]: 68.8 ng/mL
Tmax ([1]; 200 mg, patient plasma after oral (1-g) 200 mg QD, C1D15, n = 12, *median value): 7.17 h
AUC(0-t) [1, 4]: 9540 ng·h/mL
Cmax [1, 4]: 428 ng/mL
AUC(0-t) [1, 5]: 1610 ng·h/mL
Cmax [1, 5]: 112 ng/mL
Tmax ([1]; 300 mg, patient plasma after oral (1-g) 300 mg QD, C1D15, n = 10, *median value): 5.8 h
AUC(0-t) [1, 6]: 15400 ng·h/mL
Cmax [1, 6]: 680 ng/mL
AUC(0-t) [1, 7]: 1740 ng·h/mL
Cmax [1, 7]: 118 ng/mL
Tmax ([1]; 400 mg, patient plasma after oral (1-g) 400 mg QD, C1D15, n = 5, *median value): 4.8 h
AUC(0-t) [1, 8]: 17900 ng·h/mL
Cmax [1, 8]: 820 ng/mL
AUC(0-t) [1, 9]: 2470 ng·h/mL
Cmax [1, 9]: 170 ng/mL
Tmax ([1]; 600 mg, patient plasma after oral (1-g) 600 mg QD, C1D15, n = 4, *median value): 10 h
AUC(0-t) [1, 10]: 18700 ng·h/mL
Cmax [1, 10]: 828 ng/mL
